{"source": "patent US20100267952A1", "about": "“USE OF NOVEL COMPOUND HAVING AFFINITY FOR AMYLOID, AND PROCESS FOR PRODUCTION OF THE SAME” (NIHON MEDI-PHYSICS CO., LTD., priority 2007, published 2010)", "key": {"[1]": {"assay": "Transferability into brain and clearance", "type": "in vivo, male Wistar rats", "details": "rats, intravenous injection", "source_text": "Three animals were used for Experiment I-20 and Comparative Experiment I-9, and two animals were used for Experiment I-21 at the respective time points."}, "[2]": {"assay": "Partition coefficient based on the octanol extraction method (Example I-29)", "type": "physicochemical", "details": "octanol / 10 mmol/L phosphate buffer (pH 7.4), Table I-9", "protocol": "To 2 mL of octanol, 10 μL each of the prepared sample solutions was added, and 2 mL of a 10 mmol/L phosphate buffer (pH 7.4) was further added, followed by stirring for 30 seconds."}, "[3]": {"assay": "Partition coefficient based on the octanol extraction method", "type": "physicochemical", "details": "octanol / 10 mmol/L phosphate buffer (pH 7.4)", "procedure": "After the mixture was centrifuged with a low-speed centrifuge (2000 rpm×60 min.), the octanol layer and the water layer were sampled each in an amount of 1 mL, and subjected to measurement of radioactivity count with an autowell gamma system (manufactured by Aloka, Type: ARC-301B). Using the obtained radioactivity count, log Poctanol was calculated in accordance with the equation (1-2)."}, "[4]": {"assay": "Transferability into brain and clearance (2)", "type": "in vivo, male Wistar rats", "details": "rats, intravenous injection, Table 1-10", "procedure": "0.05 mL each of these solutions was injected under thiopental anesthesia into the tail vein of respective Wistar rats (7-week old). The rats were sacrificed by bleeding from abdominal artery, and brains were removed and subjected to measurement of mass of brains and further subjected to measurement of radioactivity (hereinafter referred to as A in this Example) with a single channel analyzer (detector type: SP-20 manufactured by OHYO KOKEN KOGYO Co., Ltd.) 2, 5, 30 and 60 minutes after the injection. Also, radioactivity (hereinafter referred to as B in this Example) of the rest of the whole body was measured in the same manner as above. Using these measurement results, radioactive distribution per unit weight of brain (% ID/g) at the respective time points were calculated in accordance with the following formula (1-7).\nThree animals were used for experiment at the respective time points."}, "[5]": {"test_system": "Salmonella typhimurium TA98 and TA100", "assay": "Reverse mutation test (Ames test), overall judgment", "type": "cell-based", "details": "TA98 and TA100, with and without S9mix", "protocol": "(§1) In order to examine mutagenicity of Compound I-1, I-2, I-4 and I-5, reverse mutation test using Salmonella typhimurium TA98 and TA100 (hereinafter referred to as Ames test) was conducted.\n(§2) The test was conducted without addition of S9mix and with addition of S9mix. Dimethylsulfoxide was used as a negative control. A positive control was 2-(2-furyl)-3-(5-nitro-2-furyl)acrylamide in case S9mix was not added, and 2-aminoanthracene in case S9mix was added.\n(§3) The amount of each sample to be added to the test plate was 7 dosages (geometric ratio 4) with the maximum dose being 1250 μg/plate for Compounds I-1 and I-5, and 7 dosages (geometric ratio 3) with the maximum dose being 5000 μg/plate for Compounds I-2 and I-4. After a sample to be examined and a strain (TA98 or TA100), or a sample to be examined, S9mix and the strain were mixed together, the mixture was multilayered using soft agar on a medium of a test plate, and then incubated at 37° C. for 48 hours.\nThe numbers of reverse mutation colonies of the respective strains in the group treated with Compounds I-1, I-2, I-4 and I-5 were less than two times the number in the group treated with the negative control, regardless of addition of S9mix and the addition amount of a sample to be examined. From the aforementioned results, it is judged that Compounds I-1, I-2, I-4 and I-5 are negative in the Ames test and have no mutagenicity."}, "[6]": {"test_system": "bone marrow cells of Crlj:CD1 (ICR) male mouse", "assay": "Micronucleus test", "type": "in vivo", "details": "single oral administration 250-2000 mg/kg, 24 and 48 hours", "protocol": "In order to study mutagenicity (in vivo) of Compound I-4, induction of micronucleated polychromatic erythrocyte (hereinafter referred to as MNPCE) was examined using bone marrow cells of Crlj:CD1 (ICR) male mouse.\n0 mg/kg (negative control group), 250, 500, 1000 and 2000 mg/kg (test sample group) were set as doses for the test. Mice were sacrificed 24 and 48 hours after single oral administration, and bone marrow smear was prepared and observed. Further, a single dose of MMC at 2 mg/kg was abdominally administrated in positive control group, mice were sacrificed 24 hours after the administration, and then bone marrow smear was prepared and observed.\nAs statistical analysis, significance tests were conducted by Wilcoxon rank sum test for the appearance frequency of MNPCE and the ratio of polychromatic erythrocyte (hereinafter referred to as PCE) to the total red blood cell (hereinafter referred to as RBC) in each administration group concerning the test sample and positive control groups relative to the negative control group and concerning these groups relative to each other where the significance level was set to less than 5% and less than 1%, respectively."}, "[7]": {"test_system": "Salmonella typhimurium TA98", "assay": "Reverse mutation test (Ames test), TA98", "type": "cell-based", "protocol": "as §1, §2, §3"}, "[8]": {"molecular_target": "T1, amyloid (aggregated Aβ1-40) (Homo sapiens, UniProt P05067)", "T1 construct": "Aβ1-40 (Peptide Institute, INC.) was dissolved in phosphate buffer (pH 7.4); purchased Peptide Institute, INC", "T1 sequence (P05067 672-711 limits assumed)": "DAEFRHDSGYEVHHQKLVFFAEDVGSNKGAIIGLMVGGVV", "assay": "Measurement of affinity with amyloid: inhibition of [125I]3′-I-BTA-0 binding", "details": "[125I]3′-I-BTA-0 400 pmol/L, amyloid 1 μmol/L, 22° C., 3 hours", "protocol": "Affinity of the present compounds with amyloid was examined by the following in vitro binding tests.\n(1) Aβ1-40 (Peptide Institute, INC.) was dissolved in phosphate buffer (pH 7.4) and shaken at 37° C. for 62-72 hours, to obtain a 1 mg/mL suspension of aggregated Aβ (hereinafter referred to as amyloid suspension in this Example).\n(3) According to the method described in a literature (Wang, Y., et al., J. Labeled Compounds Radiopharmaceut. 44, 5239 (2001)), [^125I]2-(3′-iodo-4′-aminophenyl)benzothiazole (hereinafter referred to as […]) was prepared from a labeling precursor 2-(4′-aminophenyl)benzothiazole, and dissolved in ethanol.\n(5) Samples in which [^125I]3′-I-BTA-0, each compound for evaluation and amyloid were dissolved in a 0.1% bovine serum albumin-containing phosphate buffer (pH 7.4) at final concentrations shown in Table 1-2 were prepared. The resulting samples were filled in each well (about 0.3 mL in volume) of a 96-well microplate.\n(6) The microplate filled with the sample solutions was shaken at a given rate (400 rpm) at 22° C. for 3 hours. Then, each sample solution was filtered through a glass fiber filter (trade name: Mulutiscreen™-FC, manufactured by Millipore), to separate the [^125I]3′-I-BTA-0 attached to amyloid from the free [^125I]3′-I-BTA-0.\n(7) The glass fiber filter used for the filtration of each sample solution was washed with a 0.1% bovine serum albumin-containing phosphate buffer (pH 7.4) (0.5 mL×5), and radioactivity of the glass fiber filter was measured with an autowell gamma system (manufactured by Aloka, Type: ARC-301B).\n(8) Separately, a solution of containing 15 μmol/L of 6-Me-BTA-2, […] of [^125I]3′-I-BTA-0 and 1 μmol/L of Aβ1-40 were prepared and subjected to the same procedures as described above in (6) and (7) to measure a radioactivity level. The measured radioactivity level was defined as the background radioactivity level, and used in the calculation of the inhibition ratio (hereinafter referred to as BG).\n(9) Using the radioactivity levels measured above in (7) and (8), the inhibition ratio was determined by the following formula (1-1).\nA graph in which values converted by probit transformation from the obtained inhibition ratios were plotted relative to logarithms of concentrations of compounds for evaluation was prepared to obtain an approximate straight line by the least square method. Using the line, the concentration of each compound for evaluation was determined, at which the radioactivity level is half of the level of the sample free from each compound for evaluation, and was defined as a 50% inhibition concentration of each compound (hereinafter referred to as IC50% value). Using the value as an indicator, affinity of each compound for evaluation with amyloid (aggregated Aβ1-40) was evaluated."}, "[9]": {"test_system": "Chinese Hamster fibroblast cell line (CHL/IU cell)", "assay": "Chromosome aberration test", "type": "cell-based", "details": "with or without S9 short-term treatment and 24-hour continuous treatment; 0.15-1.2 mg/mL", "protocol": "In order to examine whether Compound I-4 can induce chromosome aberration, the chromosome aberration test was conducted using Chinese Hamster fibroblast cell line (CHL/IU cell) in a culture system with or without addition of S9 by short-term treatment process and in a 24-hour culture system by continuous treatment process. The addition amount of a sample to be tested was set to 1.2, 0.6, 0.3, and 0.15 mg/mL for all the respective culture systems."}, "[10]": {"test_system": "Salmonella typhimurium TA100", "assay": "Reverse mutation test (Ames test), TA100", "type": "cell-based", "protocol": "as §1, §2, §3"}, "[11]": {"assay": "Partition coefficient based on HPLC", "type": "physicochemical", "details": "mobile phase 50 mM triethylamine phosphate (pH 7.2)/acetonitrile=40/60", "protocol": "Measurements of partition coefficient based on HPLC The partition coefficient by HPLC (hereinafter referred to as log PHPLC) was measured by the following method.\nFirst, compounds for evaluation shown in Table 1-5 were dissolved at a concentration of 1 mg/mL in methanol containing 10% dimethylsulfoxide to prepare sample solutions. One μL of the sample solution was subjected to HPLC analysis under the following conditions to determine the elution time (t0) of the solvent and the elution time (tR) of each compound.\nColumn: Prodigy ODS (3) (product name; manufactured by phenomenex; size: 4.6×250 mm)\nMobile phase: a mixed solution of 50 mM triethylamine phosphate (pH 7.2)/acetonitrile=40/60\nDetector: ultraviolet visible absorptiometer (detection wavelength: 282 nm)\nUsing the obtained t0 and tR, the retention factor (hereinafter referred to as K′HPLC value) of each compound for evaluation was determined according to the following calculation formula (1-3).\nAfter the individual solutions were stirred for 30 seconds, the solutions were centrifuged at 2,000 rpm for 60 minutes. 1 mL each of the octanol phase and the water phase was fractionated, and the radioactivity was measured by an autowell gamma system (manufactured by Aloka Co., Ltd.: Type ARC-301B). Based on the obtained radioactivity, log Poctanol values were calculated according to the above equation (1-2). […]"}, "[12]": {"details": "International Publication No. WO03/106439; cited from earlier work"}, "[13]": {"assay": "Unspecific accumulation at sites without amyloid (applicant's studies)", "details": "results of our studies"}}, "data": [{"compound": "CN(C)c1ccc(-c2cn3cc([123I])ccc3n2)cc1", "note": "[[^123I]-IMPY, reference compound]", "values": [{"measurement": "Radioactive distribution per unit weight in brain, After 2 min.", "setting": "[1]; 2 min.", "value": 1.02, "unit": "% ID/g"}, {"measurement": "Radioactive distribution per unit weight in brain, After 5 min.", "setting": "[1]; 5 min.", "value": 0.99, "unit": "% ID/g"}, {"measurement": "Radioactive distribution per unit weight in brain, After 30 min.", "setting": "[1]; 30 min.", "value": 0.20, "unit": "% ID/g"}, {"measurement": "Radioactive distribution per unit weight in brain, After 60 min.", "setting": "[1]; 60 min.", "value": 0.08, "unit": "% ID/g"}, {"measurement": "logPoctanol value", "setting": "[2]", "value": 2.1}, {"measurement": "logPoctanol value", "setting": "[3]", "value": 2.1}, {"measurement": "Radioactive distribution per unit weight in brain, After 2 min.", "setting": "[4]; 2 min.", "value": 1.19, "unit": "% ID/g"}, {"measurement": "Radioactive distribution per unit weight in brain, After 5 min.", "setting": "[4]; 5 min.", "value": 0.97, "unit": "% ID/g"}, {"measurement": "Radioactive distribution per unit weight in brain, After 30 min.", "setting": "[4]; 30 min.", "value": 0.23, "unit": "% ID/g"}, {"measurement": "Radioactive distribution per unit weight in brain, After 60 min.", "setting": "[4]; 60 min.", "value": 0.09, "unit": "% ID/g"}]}, {"compound": "FCCOc1ccc(-c2cn3cc(I)ccc3n2)cc1", "note": "[Compound I-4, 2-[4′-(2″-fluoroethoxy)phenyl]-6-iodoimidazo[1,2-a]pyridine]", "values": [{"measurement": "Ames test judgment", "setting": "[5]", "value": "negative"}, {"measurement": "mutagenicity (in vivo), induction of micronucleus", "setting": "[6]", "value": "negative"}, {"measurement": "Mutagenicity, TA98, With addition of S9mix", "setting": "[7]; with S9mix", "value": "Negative"}, {"measurement": "Mutagenicity, TA98, Without addition of S9mix", "setting": "[7]; without S9mix", "value": "Negative"}, {"measurement": "IC50", "setting": "[8]", "value": 0.9, "unit": "nM"}, {"measurement": "capability of inducing chromosome aberration", "setting": "[9]", "value": "negative"}, {"measurement": "Mutagenicity, TA100, With addition of S9mix", "setting": "[10]; with S9mix", "value": "Negative"}, {"measurement": "Mutagenicity, TA100, Without addition of S9mix", "setting": "[10]; without S9mix", "value": "Negative"}]}, {"compound": "CN(C)c1ccc(-c2cn3cc(I)ccc3n2)cc1", "note": "[IMPY, 6-iodo-2-[4′-(N,N-dimethylamino)phenyl]imidazo[1,2-a]pyridine]", "values": [{"measurement": "logPHPLC value", "setting": "[11]", "value": 2.1}, {"measurement": "reverse mutation test", "setting": "[12]", "value": "positive"}, {"measurement": "unspecific accumulation on sites other than amyloid deposition", "setting": "[13]", "value": "accumulates unspecifically on white matter or other sites where amyloid is not deposited"}]}]}
